According to US20030176456A1, “Methods for reducing alcohol cravings in chronic alcoholics” (priority 2001, published 2003):

Key:
[1] = molecular target: wild type BDZ receptors (cerebral cortical membranes); assay: Radioligand displacement at cerebral cortical membranes; format: binding; settings: read-out: Displacement of [3H] flunitrazepam in vitro, IC50; rat cerebral cortical membranes; mean of three or more experiments
Description: [^3H] […] In brief, rats were sacrificed by decapitation, and the cerebral cortex removed. […] Tissue was resuspended in an equal volume of buffer and recentrifuged. This procedure was repeated a total of three times and the tissue resuspended in 50 volumes of buffer. Incubations (1 mL) consisted of tissue (0.3 mL), drug solution (0.1 mL), buffer (0.5 mL) and radioligand (0.1 mL). […] The IC50 values were estimated using Hill plots.

mice = settings: Cox et al., 1998; cited from earlier work
α1 GABAA receptor = molecular target: T1, α1 GABAA receptor (Homo sapiens, UniProt P14867+P18507); assay: Modulation of GABA induced currents in HEK cells; format: cell-based; settings: 0.1 to 100 μM
T1 construct: expressed in transfected cells; host or cells: HEK cells
Description: (§1) In this study, we assessed the functional capacity of βCCt to competitively antagonize the anxiolytic versus the sedative properties of the prototypical BDZ, chlordiazepoxide.
(§2) FIGS. 21-26 represent the molecular biology data in α1-α6 GABAA receptors. […] In other words, βCCt behaves like chlordiazepoxide at the anxiety receptors. It is important to note that these effects occur at 50-100 μM, and would most likely be observed at moderate doses.

α2 GABAA receptor = molecular target: T2, α2 GABAA receptor (Homo sapiens, UniProt P18507+P47869); assay: Modulation of GABA induced currents in HEK cells; format: cell-based
T2 construct: expressed in transfected cells; host or cells: HEK cells
Description: as §1, §2

α3 GABAA receptor = molecular target: T3, α3 GABAA receptor (Homo sapiens, UniProt P18507+P34903); assay: Modulation of GABA induced currents in HEK cells; format: cell-based
T3 construct: expressed in transfected cells; host or cells: HEK cells
Description: as §1, §2

α4 GABAA receptor = molecular target: T4, α4 GABAA receptor (Homo sapiens, UniProt P18507+P48169); assay: Modulation of GABA induced currents in HEK cells; format: cell-based; settings: 0.1 to 100 μM
T4 construct: expressed in transfected cells; host or cells: HEK cells
Description: as §1, §2

α5 GABAA receptor = molecular target: T5, α5 GABAA receptor (Homo sapiens, UniProt P18507+P31644); assay: Modulation of GABA induced currents in HEK cells; format: cell-based; settings: 0.1 to 100 μM
T5 construct: expressed in transfected cells; host or cells: HEK cells
Description: as §1, §2

α6 GABAA receptor = molecular target: T6, α6 GABAA receptor (Homo sapiens, UniProt P18507+Q16445); assay: Modulation of GABA induced currents in HEK cells; format: cell-based; settings: 0.1 to 100 μM
T6 construct: expressed in transfected cells; host or cells: HEK cells
Description: as §1, §2

HAD-1 rats [2] = format: in vivo, rat; settings: i.p.; chlordiazepoxide 10 mg/kg, βCCt 15 mg/kg; 10 min open field
Description: (§3) Ambulatory count in the open field was recorded individually for 10 min in a plexiglas chamber (42 cm×42 cm 30 cm) using a Digiscan activity monitoring system (Acuscan Electronics, Columbus, Ohio, USA) (for details of the monitoring system see June et al., 1998d).
(§4) βCCt (15 mg/kg i.p.) and chlordiazepoxide (10 mg/kg i.p.) were administered 15 and 30 min, respectively, prior to the rats being placed in the open field. EtOH (1.25 g/kg) was given 5 min prior to placing the rats in the open field. When βCCt was given in combination with either chlordiazepoxide or EtOH, it was given 10 min prior to chlordiazepoxide and EtOH. As noted above, βCCt was administered in Tween-20 solution, while all other drugs were mixed in sterile saline. Animals were tested between 9 am-3 pm.
(§5) Ambulatory count in the open field was recorded individually for 10 min in a plexiglas chamber (42 cm×42 cm 30 cm) using a Digiscan activity monitoring system (Acuscan Electronics, Columbus, Ohio, USA) (for details of the monitoring system see June et al., 1998b).
(§6) βCCt (5-60 mg/kg i.p.) and chlordiazepoxide (2.5, 5, 10 mg/kg i.p.) were administered 15 and 30 min, respectively, prior to being placed in the plus maze or open field. EtOH (1.25 g/kg) was given 5 min prior to placing the rats in the open field. When βCCt was given in combination with either chlordiazepoxide or EtOH, it was given 10 min prior to chlordiazepoxide and EtOH. As noted above, βCCt was administered in Tween-20 solution, while all other drugs were mixed in sterile saline. Animals were tested between 9am-3 pm.

P rats [3] = format: in vivo, rat; settings: i.p.; chlordiazepoxide 10 mg/kg, βCCt 15 mg/kg; 10 min open field
Description: as §3, §4, §5, §6

HAD-1 rats [4] = format: in vivo, rat
Description: (§7) Rats were placed in the middle of the automated plus maze (Acuscan Electronics, Columbus, Ohio, USA) with two walled and open arms under dim illumination (for details see June et al., 1998b).
as §6
(§8) HAD-1 asnd P rats were randomly assigned to each of the […] drug treatment groups (Veh, 5, 15, 30, 60 mg/kg). A between group ANOVA with drug treatment as the independent factor was conducted for HAD-1 (n=8-12 per treatment group) [total N=42] and P (n=7-12 per treatment group) [total N=42] rats on the plus-maze test.

P rats [5] = format: in vivo, rat
Description: as §7, §6, §8

T2 sequence (P47869 29-451): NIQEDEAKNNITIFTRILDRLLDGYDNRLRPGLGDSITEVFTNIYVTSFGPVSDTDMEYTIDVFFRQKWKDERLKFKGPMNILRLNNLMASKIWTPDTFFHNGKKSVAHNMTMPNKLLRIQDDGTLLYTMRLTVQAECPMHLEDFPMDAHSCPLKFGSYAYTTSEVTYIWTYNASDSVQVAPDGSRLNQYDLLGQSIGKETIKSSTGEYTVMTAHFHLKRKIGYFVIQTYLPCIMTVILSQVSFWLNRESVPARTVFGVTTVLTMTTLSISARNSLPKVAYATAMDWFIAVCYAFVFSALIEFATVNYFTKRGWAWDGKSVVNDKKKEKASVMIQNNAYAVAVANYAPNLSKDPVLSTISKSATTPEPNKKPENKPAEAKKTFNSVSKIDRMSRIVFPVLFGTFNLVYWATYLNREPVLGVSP
T2 sequence (P28472 26-473 partner): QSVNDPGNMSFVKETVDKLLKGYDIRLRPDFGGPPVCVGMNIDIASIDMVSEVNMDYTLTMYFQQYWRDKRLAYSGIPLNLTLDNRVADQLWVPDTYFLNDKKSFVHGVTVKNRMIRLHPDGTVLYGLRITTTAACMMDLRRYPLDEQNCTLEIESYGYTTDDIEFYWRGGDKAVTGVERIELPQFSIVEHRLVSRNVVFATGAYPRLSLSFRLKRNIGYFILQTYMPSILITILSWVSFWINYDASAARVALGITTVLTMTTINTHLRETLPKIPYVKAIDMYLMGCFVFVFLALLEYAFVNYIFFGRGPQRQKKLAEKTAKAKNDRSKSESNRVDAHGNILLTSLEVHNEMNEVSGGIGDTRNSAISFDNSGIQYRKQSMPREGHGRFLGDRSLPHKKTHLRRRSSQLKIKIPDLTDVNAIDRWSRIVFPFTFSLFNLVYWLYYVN
T2 sequence (P18507 40-475): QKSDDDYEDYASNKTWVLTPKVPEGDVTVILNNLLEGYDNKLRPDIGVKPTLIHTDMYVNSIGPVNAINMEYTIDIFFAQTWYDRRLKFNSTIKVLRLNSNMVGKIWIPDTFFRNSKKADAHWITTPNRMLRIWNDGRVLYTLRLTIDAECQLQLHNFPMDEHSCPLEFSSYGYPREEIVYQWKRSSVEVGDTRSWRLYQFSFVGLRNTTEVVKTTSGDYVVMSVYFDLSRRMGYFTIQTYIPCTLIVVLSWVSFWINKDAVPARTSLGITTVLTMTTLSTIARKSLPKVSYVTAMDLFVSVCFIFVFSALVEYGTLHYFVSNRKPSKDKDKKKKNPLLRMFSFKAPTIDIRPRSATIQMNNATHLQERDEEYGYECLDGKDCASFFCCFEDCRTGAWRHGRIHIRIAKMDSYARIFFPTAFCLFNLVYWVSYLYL
T4 sequence (P48169 36-554): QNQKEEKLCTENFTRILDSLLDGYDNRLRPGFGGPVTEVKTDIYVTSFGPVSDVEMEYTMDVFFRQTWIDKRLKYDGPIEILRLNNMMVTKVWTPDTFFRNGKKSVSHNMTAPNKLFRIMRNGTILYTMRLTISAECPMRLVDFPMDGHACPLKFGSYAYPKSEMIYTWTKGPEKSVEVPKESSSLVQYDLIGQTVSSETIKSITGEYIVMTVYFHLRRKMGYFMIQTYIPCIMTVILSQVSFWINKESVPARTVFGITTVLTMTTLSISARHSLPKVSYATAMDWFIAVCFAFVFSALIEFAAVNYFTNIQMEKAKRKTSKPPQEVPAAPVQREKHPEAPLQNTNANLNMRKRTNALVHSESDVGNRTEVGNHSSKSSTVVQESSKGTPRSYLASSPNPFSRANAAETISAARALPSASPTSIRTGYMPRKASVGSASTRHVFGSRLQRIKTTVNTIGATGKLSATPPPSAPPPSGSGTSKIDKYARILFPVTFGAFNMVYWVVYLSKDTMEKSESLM
T4 sequence (P28472 26-473 partner): as the sequence (P28472 26-473 partner) above
T4 sequence (P18507 40-475): as the sequence (P18507 40-475) above
T5 sequence (P31644 32-462): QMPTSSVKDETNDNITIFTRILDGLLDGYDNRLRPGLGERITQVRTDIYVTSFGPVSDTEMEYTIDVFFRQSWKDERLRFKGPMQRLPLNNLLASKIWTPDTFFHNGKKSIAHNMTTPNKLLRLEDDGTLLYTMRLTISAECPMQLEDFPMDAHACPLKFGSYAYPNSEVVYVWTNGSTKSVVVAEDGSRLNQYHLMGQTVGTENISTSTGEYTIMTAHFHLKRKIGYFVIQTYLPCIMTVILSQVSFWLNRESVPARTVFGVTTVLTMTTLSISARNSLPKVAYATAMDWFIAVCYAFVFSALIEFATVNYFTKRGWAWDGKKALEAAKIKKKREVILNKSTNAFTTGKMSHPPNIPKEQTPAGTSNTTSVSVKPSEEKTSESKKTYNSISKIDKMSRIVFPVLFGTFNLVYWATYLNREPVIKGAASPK
T5 sequence (P28472 26-473 partner): as the sequence (P28472 26-473 partner) above
T5 sequence (P18507 40-475): as the sequence (P18507 40-475) above
T6 sequence (Q16445 20-453): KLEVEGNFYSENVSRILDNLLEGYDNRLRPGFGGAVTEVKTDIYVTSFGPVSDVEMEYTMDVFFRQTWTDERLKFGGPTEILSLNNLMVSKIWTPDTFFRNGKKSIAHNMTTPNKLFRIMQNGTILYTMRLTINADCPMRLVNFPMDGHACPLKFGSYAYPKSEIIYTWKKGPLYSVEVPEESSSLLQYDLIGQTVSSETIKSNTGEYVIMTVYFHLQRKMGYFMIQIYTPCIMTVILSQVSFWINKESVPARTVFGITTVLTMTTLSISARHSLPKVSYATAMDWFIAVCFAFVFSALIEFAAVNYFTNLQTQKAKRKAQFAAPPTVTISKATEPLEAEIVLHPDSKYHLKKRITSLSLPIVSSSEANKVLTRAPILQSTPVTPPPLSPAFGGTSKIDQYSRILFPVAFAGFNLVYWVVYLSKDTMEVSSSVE
T6 sequence (P28472 26-473 partner): as the sequence (P28472 26-473 partner) above
T6 sequence (P18507 40-475): as the sequence (P18507 40-475) above
T3 sequence (P34903 29-492): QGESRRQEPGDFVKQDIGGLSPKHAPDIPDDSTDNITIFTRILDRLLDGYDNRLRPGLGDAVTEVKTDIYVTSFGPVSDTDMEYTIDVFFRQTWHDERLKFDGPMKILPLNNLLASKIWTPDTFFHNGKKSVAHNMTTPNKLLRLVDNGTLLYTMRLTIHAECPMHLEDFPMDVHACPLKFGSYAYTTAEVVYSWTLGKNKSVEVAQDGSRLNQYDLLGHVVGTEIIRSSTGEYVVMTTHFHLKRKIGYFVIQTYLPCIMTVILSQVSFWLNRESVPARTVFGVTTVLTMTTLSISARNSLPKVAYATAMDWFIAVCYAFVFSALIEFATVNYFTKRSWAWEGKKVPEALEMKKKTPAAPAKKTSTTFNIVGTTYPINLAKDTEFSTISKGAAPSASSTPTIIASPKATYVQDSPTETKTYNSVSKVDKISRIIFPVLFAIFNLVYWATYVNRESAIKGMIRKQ
T3 sequence (P28472 26-473 partner): as the sequence (P28472 26-473 partner) above
T3 sequence (P18507 40-475): as the sequence (P18507 40-475) above
T1 sequence (P14867 28-456): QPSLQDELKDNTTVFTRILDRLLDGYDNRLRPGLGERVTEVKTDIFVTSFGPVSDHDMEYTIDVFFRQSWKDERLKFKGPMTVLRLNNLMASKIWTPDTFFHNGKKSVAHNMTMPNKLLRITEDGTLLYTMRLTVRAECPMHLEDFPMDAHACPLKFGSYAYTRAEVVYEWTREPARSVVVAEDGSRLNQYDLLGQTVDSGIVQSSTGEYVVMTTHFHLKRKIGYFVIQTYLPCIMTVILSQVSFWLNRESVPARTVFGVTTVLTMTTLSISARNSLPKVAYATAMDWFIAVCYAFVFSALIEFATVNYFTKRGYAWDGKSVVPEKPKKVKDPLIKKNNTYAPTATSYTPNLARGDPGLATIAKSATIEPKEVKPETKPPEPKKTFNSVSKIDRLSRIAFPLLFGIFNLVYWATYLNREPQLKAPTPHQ
T1 sequence (P28472 26-473 partner): as the sequence (P28472 26-473 partner) above
T1 sequence (P18507 40-475): as the sequence (P18507 40-475) above

SMILES: CCCOc1cc2c(cn1)[nH]c1ccccc12.Cl [3-PBC, 3-Propoxy-β-carboline hydrochloride]
- IC50 [1]: 11 nM
- response in pentylenetetrazole seizure model (mice): “neutral” antagonist-like response

SMILES: CC(C)(C)OC(=O)c1cc2c(cn1)[nH]c1ccccc12 [βCCt, β-carboline-3-carboxylate t-butyl ester]
- activity at the α1 receptor in HEK cells (α1 GABAA receptor): Agonist and inverse-agonist activity
- intrinsic activity in HEK cells, α1 (α1 GABAA receptor): Intrinsic activity is seen
- activity at the α2 receptor in HEK cells (α2 GABAA receptor; 0.1 to 100 μM): Strong agonist activity
- intrinsic activity in HEK cells, α2 (α2 GABAA receptor; 0.1 to 100 μM): Intrinsic activity is seen
- concentration at which agonist-like effects occur, α2 (α2 GABAA receptor; HEK cells): 50 to 100 µM
- activity at the α3 receptor in HEK cells (α3 GABAA receptor; 0.1 to 100 μM): Strong agonist activity
- concentration at which agonist-like effects occur, α3 (α3 GABAA receptor; HEK cells): 50 to 100 µM
- activity at the α4 receptor in HEK cells (α4 GABAA receptor): Moderate agonist activity
- intrinsic activity in HEK cells, α4 (α4 GABAA receptor): Intrinsic activity is seen
- activity at the α5 receptor in HEK cells (α5 GABAA receptor): Agonist and inverse-agonist activity
- intrinsic activity in HEK cells, α5 (α5 GABAA receptor): Intrinsic activity is seen
- activity at the α6 receptor in HEK cells (α6 GABAA receptor): Minimal agonist activity
- intrinsic activity in HEK cells, α6 (α6 GABAA receptor): Intrinsic activity is seen
- locomotor activity, drug given alone (HAD-1 rats [2]): did not produce any intrinsic effects
- locomotor activity, drug given alone (P rats [3]): did not produce any intrinsic effects
- sedation in the plus maze (HAD-1 rats [4]; 60 mg/kg i.p., data not shown): marked sedative profile
- effect on anxiolytic activity produced by chlordiazepoxide (5.0 mg/kg) (HAD-1 rats [4]; 5, 15 mg/kg i.p.): neither dose of βCCt (5, 15 mg/kg, i.p.) altered the anxiolytic activity
- number of closed arm entries (HAD-1 rats [4]; i.p.): without effect
- effect on anxiolytic activity produced by chlordiazepoxide (5.0 mg/kg) (P rats [5]; 5, 15 mg/kg i.p.): neither dose of βCCt (5, 15 mg/kg, i.p.) altered the anxiolytic activity
- number of closed arm entries (P rats [5]; i.p. 5-60 mg/kg): significant reduction in performance only with the 60 mg/kg dose
